Measured values: patent publication US20230126310A1 (priority 2020, published 2023)
Square brackets hold non-standard residues; d marks the D form. Peptide text beside a SMILES is read from it. NMeF = CN[C@@H](Cc1ccccc1)C(=O)O

What follows are molecules tested on SARS-CoV-2. Conditions: 10 µM.

Question: For `CCCCCCc1ccc(O)cc1O.Nc1c2ccccc2nc2ccccc12` [ACRISORCIN], which “% Inh. (% Inhibition of SARS-CoV-2)” value is on record?
Answer: The value was 61.7%.

Question: How did the “% Inh. (% Inhibition of SARS-CoV-2)” value turn out when `COCc1c(-c2ccc(NC(=O)Nc3cc(C(F)(F)F)ccc3F)c(F)c2)c2c(N)ncnn2c1CN1CCOCC1` [ACTB-1003] was run?
Answer: Its value is 97.7%.

Question: Which “% Inh. (% Inhibition of SARS-CoV-2)” value does the source give for `COc1cc2ncnc(Nc3cccc(Cl)c3)c2cc1OC` [AG-1478 (Tyrphostin AG-1478), Tyrphostin AG-1478] here?
Answer: The value was 73.9%.

Question: `Cc1ccc2cc(-c3c(C)ccc(C(=O)c4c(-c5ccccc5)n(C)n(-c5ccccc5)c4=O)c3N)ccc2n1` [AMG-PERK-44] was tested. Which “% Inh. (% Inhibition of SARS-CoV-2)” value did it give?
Answer: Its value is 127.9%.

Question: With `c1ccc(C(NCCNC(c2ccccc2)c2ccccc2)c2ccccc2)cc1` [AMN-082] as the molecule, how does the “% Inh. (% Inhibition of SARS-CoV-2)” value read?
Answer: Its value is 71.9%.

Question: With `NCC(=O)Nc1ccc(-n2nc(C(F)(F)F)cc2-c2ccc3c(ccc4ccccc43)c2)cc1` [AR-12] as the molecule, how does the “% Inh. (% Inhibition of SARS-CoV-2)” value read?
Answer: The value was 85.7%.

Question: How did the “% Inh. (% Inhibition of SARS-CoV-2)” value turn out when `COc1ccc(CNC(=O)Nc2ncc([N+](=O)[O-])s2)cc1` [AR-A014418] was run?
Answer: Its value is 82.3%.

Question: For `Cc1sc2c(c1C)C(c1ccc(Cl)cc1)=N[C@@H](CC(=O)Nc1ccc(OCCOCCOCCOCCNc3cccc4c3C(=O)N(C3CCC(=O)NC3=O)C4=O)cc1)c1nnc(C)n1-2` (some centres unmarked) [ARV-825], which “% Inh. (% Inhibition of SARS-CoV-2)” value is on record?
Answer: The value was 52.8%.

Question: `C[C@H](NC(=O)c1sccc1OCc1ccc(Cl)cc1)c1ccccc1` [AS-1949490] was tested. Which “% Inh. (% Inhibition of SARS-CoV-2)” value did it give?
Answer: The value was 103.1%.

Question: How did the “% Inh. (% Inhibition of SARS-CoV-2)” value turn out when `Cl.O.O=CN1CCC(C(=O)NCCN2CCC(=C3c4ccccc4C=Cc4ccccc43)CC2)CC1` [AT-1015] was run?
Answer: Its value is 75.4%.

Question: For `C[C@@H]1COCCN1c1cc(C2(S(C)(=O)=O)CC2)nc(-c2cccc3[nH]ccc23)n1` [AZ20], which “% Inh. (% Inhibition of SARS-CoV-2)” value is on record?
Answer: The value was 100.0%.

Question: With `Cc1ccc(NC(=O)c2cccc(C(C)(C)C#N)c2)cc1Nc1ccc2ncn(C)c(=O)c2c1` [AZ-628] as the molecule, how does the “% Inh. (% Inhibition of SARS-CoV-2)” value read?
Answer: The value was 99.6%.

Question: Which “% Inh. (% Inhibition of SARS-CoV-2)” value does the source give for `COc1cc(N2CCC(N)CC2)ccc1Nc1ncc(Cl)c(-c2c[nH]c3ccccc23)n1` [AZD3463] here?
Answer: The value was 96.5%.

Question: With `CC(=O)N1CCN(CCOc2ccc(C3CCN(C4=Nn5c(nnc5C(F)(F)F)CC4)CC3)cc2)CC1` [AZD3514] as the molecule, how does the “% Inh. (% Inhibition of SARS-CoV-2)” value read?
Answer: Its value is 96.8%.

Question: For `Cc1ncc(-c2ccnc(Nc3ccc(S(C)(=O)=O)cc3)n2)n1C(C)C` [AZD5438], which “% Inh. (% Inhibition of SARS-CoV-2)” value is on record?
Answer: Its value is 67.2%.

Question: With `CN(C)C(=O)c1ccc(S(=O)(=O)c2ccc(NC(=O)[C@@](C)(O)C(F)(F)F)c(Cl)c2)cc1` [AZD7545] as the molecule, how does the “% Inh. (% Inhibition of SARS-CoV-2)” value read?
Answer: Its value is 82.4%.

Question: How did the “% Inh. (% Inhibition of SARS-CoV-2)” value turn out when `COc1ccc(-c2ccc3c(N4CCOC[C@@H]4C)nc(N4CCOC[C@@H]4C)nc3n2)cc1CO` [AZD8055] was run?
Answer: The value was 105.2%.

Question: How did the “% Inh. (% Inhibition of SARS-CoV-2)” value turn out when `COc1cc2cc(c1Cl)N(C)C(=O)C[C@H](OC(=O)C(C)C)[C@]1(C)O[C@@H]1[C@H](C)[C@@H]1C[C@@](O)(NC(=O)O1)[C@H](OC)/C=C/C=C(\C)C2` [Ansamitocin P-3] was run?
Answer: Its value is 62.6%.

Question: For `CC(C)(C)c1ccc(NC(=O)N2CCN(c3ncccc3Cl)CC2)cc1` [BCTC], which “% Inh. (% Inhibition of SARS-CoV-2)” value is on record?
Answer: Its value is 86.4%.

Question: For `CC(C)(C)c1cc(O)c(C(C)(C)C)cc1O` [BHQ], which “% Inh. (% Inhibition of SARS-CoV-2)” value is on record?
Answer: The value was 50.6%.

Question: How did the “% Inh. (% Inhibition of SARS-CoV-2)” value turn out when `CCN(CC)CC1CCN(c2ncc3ncnc(Nc4ccc(F)c(Cl)c4)c3n2)CC1.Cl.Cl` [BIBU-1361] was run?
Answer: The value was 78.5%.

Question: `Nc1cc(C(F)(F)F)c(-c2cc(N3CCOCC3)nc(N3CCOCC3)n2)cn1` [BKM120 (NVP-BKM120)] was tested. Which “% Inh. (% Inhibition of SARS-CoV-2)” value did it give?
Answer: Its value is 97.6%.

Question: `Nc1nccc(Oc2ccc(NC(=O)c3c[nH]cc(-c4ccc(F)cc4)c3=O)cc2F)c1Cl` [BMS 794833] was tested. Which “% Inh. (% Inhibition of SARS-CoV-2)” value did it give?
Answer: Its value is 98.3%.

Question: Which “% Inh. (% Inhibition of SARS-CoV-2)” value does the source give for `O=c1oc(-c2ccc(C(F)(F)F)cc2)nn1Cc1cc(Cl)ccc1O` [BMS-191011] here?
Answer: Its value is 52.3%.

Question: `Cc1c(NC(=O)OC[C@@H]2COCCN2)cn2ncnc(Nc3ccc4c(cnn4Cc4cccc(F)c4)c3)c12` [BMS-599626] was tested. Which “% Inh. (% Inhibition of SARS-CoV-2)” value did it give?
Answer: The value was 76.4%.

Question: Which “% Inh. (% Inhibition of SARS-CoV-2)” value does the source give for `CNCc1ccc(C)c(NC(=O)c2ccc(Nc3nc(-c4ccccc4)c4ccccc4n3)cc2)c1` [BMS-833923 (XL139)] here?
Answer: Its value is 68.8%.

Question: How did the “% Inh. (% Inhibition of SARS-CoV-2)” value turn out when `O=C1/C(=C/c2ccccc2)C[C@@]2(O)[C@H]3Cc4ccc(O)c5c4[C@@]2(CCN3CC2CC2)[C@H]1O5` [BNTX] was run?
Answer: Its value is 77.3%.

Question: How did the “% Inh. (% Inhibition of SARS-CoV-2)” value turn out when `c1ccc2nc(C3=NCCN3)cnc2c1` [BU-239] was run?
Answer: Its value is 60.1%.

Question: How did the “% Inh. (% Inhibition of SARS-CoV-2)” value turn out when `NC1(Cc2ccc(Cl)cc2)CCN(c2ncnc3[nH]ccc23)CC1` [CCT128930] was run?
Answer: The value was 86.7%.

Question: For `CCCCCCCCCCCCCCCC[N+](C)(C)C.[Br-]` [CETRIMONIUM BROMIDE], which “% Inh. (% Inhibition of SARS-CoV-2)” value is on record?
Answer: The value was 87.7%.

Question: Which “% Inh. (% Inhibition of SARS-CoV-2)” value does the source give for `O=C1NC(=O)c2cc(Nc3ccccc3)c(Nc3ccccc3)cc21` [CGP-52411] here?
Answer: Its value is 94.5%.

Question: For `O=C1NC(=O)c2cc(Nc3ccc(F)cc3)c(Nc3ccc(F)cc3)cc21` [CGP-53353], which “% Inh. (% Inhibition of SARS-CoV-2)” value is on record?
Answer: Its value is 86.1%.

Question: `OCCCNc1cc(-c2ccnc(Nc3cccc(Cl)c3)n2)ccn1` [CGP-60474] was tested. Which “% Inh. (% Inhibition of SARS-CoV-2)” value did it give?
Answer: Its value is 54.4%.

Question: How did the “% Inh. (% Inhibition of SARS-CoV-2)” value turn out when `CC(C)(C)c1cc(C(=O)/C=C/c2ccc(C(=O)O)cc2)cc(C(C)(C)C)c1` [CH55] was run?
Answer: The value was 87.5%.

Question: How did the “% Inh. (% Inhibition of SARS-CoV-2)” value turn out when `O=C(Nc1ccc(CN2CCOCC2)cc1)c1ccc(-c2cccc(Cl)c2)o1` [CID-2011756] was run?
Answer: Its value is 97.0%.

Question: `Cc1ccc(CC2(O)CCN(CCOc3ccc(O)cc3)CC2)cc1` [CO-101244] was tested. Which “% Inh. (% Inhibition of SARS-CoV-2)” value did it give?
Answer: The value was 60.2%.

Question: How did the “% Inh. (% Inhibition of SARS-CoV-2)” value turn out when `CC(C)(NS(=O)(=O)c1ccc(Oc2ccc(F)cc2)cc1)C(=O)NO` [CP-471474] was run?
Answer: The value was 86.9%.

Question: `CC[C@H](CO)Nc1nc(NCc2ccc(-c3ccccn3)cc2)c2ncn(C(C)C)c2n1` [CR8-(R)] was tested. Which “% Inh. (% Inhibition of SARS-CoV-2)” value did it give?
Answer: Its value is 76.6%.

Question: For `Cc1nc(C#Cc2ccnc(Cl)c2)c(C)n1-c1ccc(OC(F)(F)F)cc1` [CTEP (RO4956371)], which “% Inh. (% Inhibition of SARS-CoV-2)” value is on record?
Answer: Its value is 59.7%.

Question: For `COc1ccc(OC)c(CN(C(C)=O)c2cc(F)ccc2Oc2ccccc2)c1` [DAA-1106], which “% Inh. (% Inhibition of SARS-CoV-2)” value is on record?
Answer: The value was 91.0%.

Question: For `CCN1CCN(Cc2ccc(C(=O)Nc3ccc(C)c(Oc4ccc5c(c4)CC(=O)N5)c3)cc2C(F)(F)F)CC1` [DDR1-IN-1], which “% Inh. (% Inhibition of SARS-CoV-2)” value is on record?
Answer: The value was 77.6%.

Question: How did the “% Inh. (% Inhibition of SARS-CoV-2)” value turn out when `O=C1Nc2ccc(Cl)c3c2C1(CCCCN1CC=C(c2ccc(Cl)cc2)CC1)CCC3` (centres unmarked) [DR-4485] was run?
Answer: Its value is 82.8%.

Question: `CC[C@H](C)[C@@H]([C@@H](CC(=O)N1CCC[C@H]1[C@H](OC)[C@@H](C)C(=O)N[C@@H](Cc1ccccc1)c1nccs1)OC)N(C)C(=O)[C@@H](NC(=O)[C@H](C(C)C)N(C)C)C(C)C` [Dolastin-10] was tested. Which “% Inh. (% Inhibition of SARS-CoV-2)” value did it give?
Answer: Its value is 64.3%.

Question: With `COc1cc(/C=C2\CCCN([C@@H](C)c3ccc(F)cc3)C2=O)ccc1-n1cnc(C)c1` [E 2012] as the molecule, how does the “% Inh. (% Inhibition of SARS-CoV-2)” value read?
Answer: Its value is 100.8%.

Question: Which “% Inh. (% Inhibition of SARS-CoV-2)” value does the source give for `COc1c(C)cnc(Cn2cc(C#CCC(C)(C)O)c3c(Cl)nc(N)nc32)c1C` [EC-144] here?
Answer: The value was 95.0%.

Question: `COc1ccc(C(=O)N2CCCc3cc(C4=NNC(=O)SC4C)ccc32)cc1OC` (centres unmarked) [EMD-53998] was tested. Which “% Inh. (% Inhibition of SARS-CoV-2)” value did it give?
Answer: The value was 79.6%.

Question: For `Cc1ccccc1C(=O)c1ccc(Nc2ccc(Br)cc2N)cc1Cl` [EO-1428], which “% Inh. (% Inhibition of SARS-CoV-2)” value is on record?
Answer: Its value is 66.1%.

Question: Which “% Inh. (% Inhibition of SARS-CoV-2)” value does the source give for `Cc1ccc2c(=O)c3ccccc3n(CCCN)c2c1C.O=C(O)/C=C\C(=O)O` [ER-27319 maleate] here?
Answer: Its value is 101.0%.

Question: With `CC(C)(C)c1cc(C(=O)/C(C#N)=N/Nc2cccc(Cl)c2)no1` [ESI-09] as the molecule, how does the “% Inh. (% Inhibition of SARS-CoV-2)” value read?
Answer: Its value is 78.0%.

Same assay, conditions: 48 h, 10 μM

Question: For `CSCC[C@H](NC(=O)[C@H](CC(C)C)NC(=O)[C@@H](Cc1c[nH]c2ccccc12)NC(=O)[C@H](Cc1ccccc1)N(C)C(=O)[C@@H](Cc1c[nH]c2ccccc12)NC(=O)[C@@H](N)CCCNC(=N)N)C(N)=O` [Antagonist-G] (H-R[dW][NMeF][dW]LM-NH2; N-terminus and C-terminus assumed), which “% Inh. (% Inhibition of SARS-CoV-2)” value is on record?
Answer: Its value is 58.0%.
